Assays:
human Gal-3 (hGal-3) = human Gal-3 (hGal-3) (Homo sapiens (Human), UniProt P17931); test: Competitive binding assay: binding of biotinylated hGal-3 to microplate-adsorbed asialofetuin (ASF); conditions: Activity on hGal-3; mean values of several measurements
Procedure, shortened: (§1)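 For hGal-1, a variant with all six cysteines replaced by serines is preferred. Either galectin, biotinylated at 300-1000 ng/mL, competes with compound for microplate-bound ASF over 3 h at 4° C; peroxidase/ABTS detection gives IC50, averaged.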

human Gal-1 (hGal-1) = test: Competitive binding assay: binding of biotinylated hGal-1 to microplate-adsorbed asialofetuin (ASF); conditions: Activities on hGal-1; mean values of several measurements
Procedure, shortened: as §1

Sequence of human Gal-1 (hGal-1) (P09382 2-135 limits assumed): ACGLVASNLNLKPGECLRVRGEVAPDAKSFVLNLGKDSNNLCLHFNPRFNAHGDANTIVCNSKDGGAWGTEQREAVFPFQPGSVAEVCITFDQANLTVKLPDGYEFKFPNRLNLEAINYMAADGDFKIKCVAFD
Sequence of human Gal-3 (hGal-3) (P17931 whole entry): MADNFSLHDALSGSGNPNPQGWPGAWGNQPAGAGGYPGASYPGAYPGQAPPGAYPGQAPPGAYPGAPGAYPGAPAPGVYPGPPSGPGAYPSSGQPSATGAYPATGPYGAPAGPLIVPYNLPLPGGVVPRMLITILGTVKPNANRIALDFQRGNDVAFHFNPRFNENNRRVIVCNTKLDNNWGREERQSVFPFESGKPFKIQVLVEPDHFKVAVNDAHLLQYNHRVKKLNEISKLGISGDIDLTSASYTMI

| Compound | IC50 (human Gal-3 (hGal-3)) [nM] | IC50 (human Gal-1 (hGal-1)) [nM] |
| --- | --- | --- |
| CO[C@@H]1[C@@H](n2cc(-c3cc(F)c(F)c(F)c3)nn2)[C@@H](O)[C@@H](CO)O[C@@H]1C[C@@H]1CC(C2CCNCC2)=NO1 [Example 3.06, (2R,3R,4S,5R,6R)-2-(hydroxymethyl)-5-methoxy-6-(((S)-3-(piperidin-4-yl)-4,5-dihydroisoxazol-5-yl)methyl)-4-(4-(3,4,5-trifluorophenyl)-1H-1,2,3-triazol-1-yl)tetrahydro-2H-pyran-3-ol] | 280 | 2090 |
| CO[C@@H]1[C@@H](n2cc(-c3cc(F)c(F)c(F)c3)nn2)[C@@H](O)[C@@H](CO)O[C@@H]1C[C@H]1CC(C2CCNCC2)=NO1 [Example 3.07, (2R,3R,4S,5R,6R)-2-(hydroxymethyl)-5-methoxy-6-(((R)-3-(piperidin-4-yl)-4,5-dihydroisoxazol-5-yl)methyl)-4-(4-(3,4,5-trifluorophenyl)-1H-1,2,3-triazol-1-yl)tetrahydro-2H-pyran-3-ol] | 1860 | 15100 |
| OC[C@H]1O[C@H](Cc2cc(C3CCNCC3)on2)[C@H](O)[C@@H](n2cc(-c3cc(F)c(F)c(F)c3)nn2)[C@H]1O [Example 3.08, (2R,3R,4R,5R,6R)-2-(hydroxymethyl)-6-((5-(piperidin-4-yl)isoxazol-3-yl)methyl)-4-(4-(3,4,5-trifluorophenyl)-1H-1,2,3-triazol-1-yl)tetrahydro-2H-pyran-3,5-diol] | 290 | 12500 |
| CC(=O)N1CCC(C2=NO[C@@H](C[C@H]3O[C@H](CO)[C@H](O)[C@H](n4cc(-c5cc(F)c(F)c(F)c5)nn4)[C@H]3O)C2)CC1 [Example 3.10, 1-(4-((R)-5-(((2R,3R,4R,5R,6R)-3,5-dihydroxy-6-(hydroxymethyl)-4-(4-(3,4,5-trifluorophenyl)-1H-1,2,3-triazol-1-yl)tetrahydro-2H-pyran-2-yl)methyl)-4,5-dihydroisoxazol-3-yl)piperidin-1-yl)ethan-1-one] | 620 | 5500 |
| CC(=O)N1CCC(C2=NO[C@H](C[C@H]3O[C@H](CO)[C@H](O)[C@H](n4cc(-c5cc(F)c(F)c(F)c5)nn4)[C@H]3O)C2)CC1 [Example 3.11, 1-(4-((S)-5-(((2R,3R,4R,5R,6R)-3,5-dihydroxy-6-(hydroxymethyl)-4-(4-(3,4,5-trifluorophenyl)-1H-1,2,3-triazol-1-yl)tetrahydro-2H-pyran-2-yl)methyl)-4,5-dihydroisoxazol-3-yl)piperidin-1-yl)ethan-1-one] | 150 | 1380 |
| CO[C@@H]1[C@@H](n2cc(-c3cc(F)c(F)c(F)c3)nn2)[C@@H](O)[C@@H](CO)O[C@@H]1C[C@@H]1CC(C2CCN(C(C)=O)CC2)=NO1 [Example 3.12, 1-(4-((S)-5-(((2R,3R,4S,5R,6R)-5-hydroxy-6-(hydroxymethyl)-3-methoxy-4-(4-(3,4,5-trifluorophenyl)-1H-1,2,3-triazol-1-yl)tetrahydro-2H-pyran-2-yl)methyl)-4,5-dihydroisoxazol-3-yl)piperidin-1-yl)ethan-1-one] | 70 | 520 |
| CO[C@@H]1[C@@H](n2cc(-c3cc(F)c(F)c(F)c3)nn2)[C@@H](O)[C@@H](CO)O[C@@H]1C[C@H]1CC(C2CCN(C(C)=O)CC2)=NO1 [Example 3.13, 1-(4-((R)-5-(((2R,3R,4S,5R,6R)-5-hydroxy-6-(hydroxymethyl)-3-methoxy-4-(4-(3,4,5-trifluorophenyl)-1H-1,2,3-triazol-1-yl)tetrahydro-2H-pyran-2-yl)methyl)-4,5-dihydroisoxazol-3-yl)piperidin-1-yl)ethan-1-one] | 670 | 4020 |
| CC(=O)O[C@@H]1[C@@H](n2cc(-c3cc(F)c(F)c(F)c3)nn2)[C@@H](O)[C@@H](CO)O[C@@H]1Cc1cc(C2CCNCC2)on1 [Example 3.15, (2R,3R,4S,5R,6R)-5-hydroxy-6-(hydroxymethyl)-2-((5-(piperidin-4-yl)isoxazol-3-yl)methyl)-4-(4-(3,4,5-trifluorophenyl)-1H-1,2,3-triazol-1-yl)tetrahydro-2H-pyran-3-yl acetate] | 140 | 13600 |
| CO[C@@H]1[C@@H](n2cc(-c3cc(F)c(F)c(F)c3)nn2)[C@@H](O)[C@@H](CO)O[C@@H]1Cc1cc(C2CCNCC2)on1 [Example 3.16, (2R,3R,4S,5R,6R)-2-(hydroxymethyl)-5-methoxy-6-((5-(piperidin-4-yl)isoxazol-3-yl)methyl)-4-(4-(3,4,5-trifluorophenyl)-1H-1,2,3-triazol-1-yl)tetrahydro-2H-pyran-3-ol] | 220 | 5190 |

The next lines start with the values.

| IC50 (human Gal-3 (hGal-3)) [nM] | IC50 (human Gal-1 (hGal-1)) [nM] | Compound |
| --- | --- | --- |
| 430 | 4720 | CC(=O)N1CCC([C@H]2CC(C[C@H]3O[C@H](CO)[C@H](O)[C@H](n4cc(-c5cc(F)c(F)c(F)c5)nn4)[C@H]3O)=NO2)CC1 [Example 3.19, 1-(4-((R)-3-(((2R,3R,4R,5R,6R)-3,5-dihydroxy-6-(hydroxymethyl)-4-(4-(3,4,5-trifluorophenyl)-1H-1,2,3-triazol-1-yl)tetrahydro-2H-pyran-2-yl)methyl)-4,5-dihydroisoxazol-5-yl)piperidin-1-yl)ethan-1-one] |
| 240 | 1850 | CC(=O)N1CCC([C@@H]2CC(C[C@H]3O[C@H](CO)[C@H](O)[C@H](n4cc(-c5cc(F)c(F)c(F)c5)nn4)[C@H]3O)=NO2)CC1 [Example 3.20, 1-(4-((S)-3-(((2R,3R,4R,5R,6R)-3,5-dihydroxy-6-(hydroxymethyl)-4-(4-(3,4,5-trifluorophenyl)-1H-1,2,3-triazol-1-yl)tetrahydro-2H-pyran-2-yl)methyl)-4,5-dihydroisoxazol-5-yl)piperidin-1-yl)ethan-1-one] |
| 46 | 590 | CO[C@@H]1[C@@H](n2cc(-c3cc(F)c(F)c(F)c3)nn2)[C@@H](O)[C@@H](CO)O[C@@H]1Cc1cc(C2CCN(C(C)=O)CC2)on1 [Example 3.21, 1-(4-(3-(((2R,3R,4S,5R,6R)-5-hydroxy-6-(hydroxymethyl)-3-methoxy-4-(4-(3,4,5-trifluorophenyl)-1H-1,2,3-triazol-1-yl)tetrahydro-2H-pyran-2-yl)methyl)isoxazol-5-yl)piperidin-1-yl)ethan-1-one] |
| 28 | 1870 | CC(=O)O[C@@H]1[C@@H](n2cc(-c3cc(F)c(F)c(F)c3)nn2)[C@@H](O)[C@@H](CO)O[C@@H]1Cc1cc(C2CCN(C(C)=O)CC2)on1 [Example 3.22, (2R,3R,4S,5R,6R)-2-((5-(1-acetylpiperidin-4-yl)isoxazol-3-yl)methyl)-5-hydroxy-6-(hydroxymethyl)-4-(4-(3,4,5-trifluorophenyl)-1H-1,2,3-triazol-1-yl)tetrahydro-2H-pyran-3-yl acetate] |
| 340 | 9190 | CC(=O)O[C@@H]1[C@@H](n2cc(-c3cc(F)c(F)c(F)c3)nn2)[C@@H](O)[C@@H](CO)O[C@@H]1CC1=NO[C@@H](C2CCN(C(C)=O)CC2)C1 [Example 3.24, (2R,3R,4S,5R,6R)-2-(((R)-5-(1-acetylpiperidin-4-yl)-4,5-dihydroisoxazol-3-yl)methyl)-5-hydroxy-6-(hydroxymethyl)-4-(4-(3,4,5-trifluorophenyl)-1H-1,2,3-triazol-1-yl)tetrahydro-2H-pyran-3-yl acetate] |
| 170 | 2470 | CC(=O)O[C@@H]1[C@@H](n2cc(-c3cc(F)c(F)c(F)c3)nn2)[C@@H](O)[C@@H](CO)O[C@@H]1CC1=NO[C@H](C2CCN(C(C)=O)CC2)C1 [Example 3.25, (2R,3R,4S,5R,6R)-2-(((S)-5-(1-acetylpiperidin-4-yl)-4,5-dihydroisoxazol-3-yl)methyl)-5-hydroxy-6-(hydroxymethyl)-4-(4-(3,4,5-trifluorophenyl)-1H-1,2,3-triazol-1-yl)tetrahydro-2H-pyran-3-yl acetate] |
| 68 | 930 | CCOC(=O)N1CCC(c2cc(C[C@H]3O[C@H](CO)[C@H](O)[C@H](n4cc(-c5cc(F)c(F)c(F)c5)nn4)[C@H]3O)no2)CC1 [Example 3.26, ethyl 4-(3-(((2R,3R,4R,5R,6R)-3,5-dihydroxy-6-(hydroxymethyl)-4-(4-(3,4,5-trifluorophenyl)-1H-1,2,3-triazol-1-yl)tetrahydro-2H-pyran-2-yl)methyl)isoxazol-5-yl)piperidine-1-carboxylate] |
| 32 | 870 | CCNC(=O)N1CCC(c2cc(C[C@H]3O[C@H](CO)[C@H](O)[C@H](n4cc(-c5cc(F)c(F)c(F)c5)nn4)[C@H]3O)no2)CC1 [Example 3.27, 4-(3-(((2R,3R,4R,5R,6R)-3,5-dihydroxy-6-(hydroxymethyl)-4-(4-(3,4,5-trifluorophenyl)-1H-1,2,3-triazol-1-yl)tetrahydro-2H-pyran-2-yl)methyl)isoxazol-5-yl)-N-ethylpiperidine-1-carboxamide] |
| 38 | 1230 | CS(=O)(=O)N1CCC(c2cc(C[C@H]3O[C@H](CO)[C@H](O)[C@H](n4cc(-c5cc(F)c(F)c(F)c5)nn4)[C@H]3O)no2)CC1 [Example 3.28, (2R,3R,4R,5R,6R)-2-(hydroxymethyl)-6-((5-(1-(methylsulfonyl)piperidin-4-yl)isoxazol-3-yl)methyl)-4-(4-(3,4,5-trifluorophenyl)-1H-1,2,3-triazol-1-yl)tetrahydro-2H-pyran-3,5-diol] |
| 270 | 15800 | CN1CCC(c2cc(C[C@H]3O[C@H](CO)[C@H](O)[C@H](n4cc(-c5cc(F)c(F)c(F)c5)nn4)[C@H]3O)no2)CC1 [Example 3.29, (2R,3R,4R,5R,6R)-2-(hydroxymethyl)-6-((5-(1-methylpiperidin-4-yl)isoxazol-3-yl)methyl)-4-(4-(3,4,5-trifluorophenyl)-1H-1,2,3-triazol-1-yl)tetrahydro-2H-pyran-3,5-diol] |

Reference: patent publication US12319672B2, “Alpha-D-galactopyranoside derivatives” (Idorsia Pharmaceuticals Ltd, priority 2019, dated 2025)
